Experimental data published in US4431665A, “Acylated laidlomycin derivatives” (priority 1980, dated 1984).

How the values were obtained:
[1] = test system: rumen microorganisms (mixed microbial population of rumen contents); test: Enhancement of intraruminal propionic acid production, batch culture fermentation of rumen contents; assay type: cell-based, bovine (rumen-fistulated); settings: 9 h, 39° C.
Procedure: Enhancement of intraruminal propionic acid production is determined using a batch culture fermentation system. Rumen contents from a rumen-fistulated bovine are mixed with an equal amount of buffer which contains mineral, energy and nitrogen sources required for continued growth and metabolism of the mixed microbial population. Aliquots of this inoculum then are transferred to incubation vessels containing appropriate amounts of sodium laidlomycin (Na L.) (see Example 1A), and L. butyrate (L.C4) (prepared according to the procedure of Example 1A). After 9 hours of incubation at 39° C., concentrations of individual volatile fatty acids in each incubation vessel are determined by gas-liquid chromatography. The net production of each individual volatile fatty acid (acetic [AA], propionic [PA] and butyric [BA]) is calculated as the difference between the concentration after incubation and the concentration before incubation. The molar percentage of propionic acid produced is calculated from the following equation: [formula]
The comparative activities of sodium laidlomycin (Na L.) and the laidlomycin butyrate upon propionic acid and lactic acid production are set forth in Tables 1 and 2 where the concentration is in micrograms per ml (μg/ml).
(§1) The procedure of Example 2 was followed to compare laidlomycin (L.), sodium L. (Na L.), L.-propionate (L.C3), L. butyrate (L.C4), L. isobutyrate (L. isoC4), L. pentanoate (L.C5) and L. hexanoate (L.C6).
(§2) The procedure of Example 2 was followed to compare the activities of L. heptanoate (L. C7), L. octanoate (L. C8), L. decanoate (L. C10) and L. dodecanoate (L. C12) in increasing propionic acid production and inhibiting lactic acid production.
(§3) The procedure of Example 2 was followed to compare the activities of laidlomycin (L.) acetate (L. C2), L. pentanoate (L. C5), L. stearate (L. C18), L. cyclobutylcarboxylate, L. cyclopentylcarboxylate, L. cyclohexylcarboxylate and L. cyclopropylcarboxylate.

[2] = test system: rumen contents (lactic acid accumulation); test: Inhibition of lactic acid accumulation, second batch culture fermentation of rumen contents with glucose; assay type: cell-based, bovine (rumen fistulated); settings: 6 h, 6 h, 39° C.; for activity at 1.25 µg/mL / activity at 5 µg/mL / activity at 20 µg/mL / activity at 0.31 µg/mL: Bos taurus, read-out: Accumulation of Lactic Acid - % of Control, Table 4; for Lactic Acid Accumulation (μ mol/ml): Table 8, 0 μg/ml: 40.47; for Lactic Acid Accumulation: Table 6, 0 μg/ml: 36.65
Procedure: Inhibition of lactic acid accumulation is determined using a second batch culture fermentation system. Rumen contents from a rumen fistulated bovine are mixed with an equal amount of buffer which contains a 150 mM concentration of glucose. Following 6 hours of incubation at 39° C., lactic acid produced in the fermentation is analyzed by a specific enzymatic assay. The concentration of lactic acid in the fermentation broth is quantified by the increase in absorbance of light at […] when nicotinamide adenine dinucleotide is reduced by lactic acid with the aid of lactate dehydrogenase. […]
as §1, §2, §3

[3] = Table 3, 1.25 μg/ml, 0 μg/ml: 28.5
[4] = Table 3, 5 μg/ml, 0 μg/ml: 28.5
[5] = Table 3, 20 μg/ml, 0 μg/ml: 28.5
[6] = Table 3, .31 μg/ml, 0 μg/ml: 28.5
[7] = Table 5, 1.25 μg/ml, 0 μg/ml: 35.5
[8] = Table 5, 2.5 μg/ml, 0 μg/ml: 35.5
[9] = Table 5, 5 μg/ml, 0 μg/ml: 35.5
[10] = Table 5, 10 μg/ml, 0 μg/ml: 35.5
[11] = Table 5, 20 μg/ml, 0 μg/ml: 35.5
[12] = Table 5, .31 μg/ml, 0 μg/ml: 35.5
[13] = Table 5, .63 μg/ml, 0 μg/ml: 35.5

SMILES | % Propionic Acid [1, 3] | % Propionic Acid [1, 4] | % Propionic Acid [1, 5] | % Propionic Acid [1, 6] | activity at 1.25 µg/mL ([2]; 1.25 μg/ml) | activity at 5 µg/mL ([2]; 5 μg/ml) | % Propionic Acid [1, 7] | % Propionic Acid [1, 8] | % Propionic Acid [1, 9] | % Propionic Acid [1, 10] | % Propionic Acid [1, 11] | % Propionic Acid [1, 12] | % Propionic Acid [1, 13] | Lactic Acid Accumulation ([2]; 1.25 μg/ml) | Lactic Acid Accumulation ([2]; 2.5 μg/ml) | Lactic Acid Accumulation ([2]; 5 μg/ml) | Lactic Acid Accumulation ([2]; 10 μg/ml) | Lactic Acid Accumulation ([2]; 20 μg/ml) | Lactic Acid Accumulation ([2]; .31 μg/ml) | Lactic Acid Accumulation ([2]; .63 μg/ml) | also measured
CCCCC(=O)OCC1(O)OC(C2CC(C)C(C3(C)CCC(C4(C)CCC5(CC(O)C(C)C(C(C)C(OC(=O)CC)C(C)C(=O)O)O5)O4)O3)O2)C(C)CC1C (centres unmarked) [L. C5, laidlomycin pentanoate] | 33.9% | 36.1% | 39.7% | 30.6% | 54% | 13% | – | – | – | – | – | – | – | – | – | – | – | – | – | – | % Propionic Acid ([1]; Table 7, 1.25 μg/ml, 0 μg/ml: 36.1): 48.7%; % Propionic Acid ([1]; Table 7, 2.5 μg/ml, 0 μg/ml: 36.1): 50.9%; % Propionic Acid ([1]; Table 7, 5 μg/ml, 0 μg/ml: 36.1): 49.9%; % Propionic Acid ([1]; Table 7, 10 μg/ml, 0 μg/ml: 36.1): 51.6%; % Propionic Acid ([1]; Table 7, 20 μg/ml, 0 μg/ml: 36.1): 51.1%; % Propionic Acid ([1]; Table 7, .313 μg/ml, 0 μg/ml: 36.1): 45.9%; % Propionic Acid ([1]; Table 7, .625 μg/ml, 0 μg/ml: 36.1): 48.1%; activity at 20 µg/mL ([2]; 20 μg/ml): 11%; activity at 0.31 µg/mL ([2]; .31 μg/ml): 109%; Lactic Acid Accumulation (μ mol/ml) ([2]; 1.25 μg/ml): 4.67 μ mol/ml; Lactic Acid Accumulation (μ mol/ml) ([2]; 2.5 μg/ml): 3.75 μ mol/ml; Lactic Acid Accumulation (μ mol/ml) ([2]; 5 μg/ml): 4.04 μ mol/ml; Lactic Acid Accumulation (μ mol/ml) ([2]; 10 μg/ml): 4.63 μ mol/ml; Lactic Acid Accumulation (μ mol/ml) ([2]; 20 μg/ml): 5.13 μ mol/ml; Lactic Acid Accumulation (μ mol/ml) ([2]; .313 μg/ml): 24.62 μ mol/ml; Lactic Acid Accumulation (μ mol/ml) ([2]; .625 μg/ml): 11.91 μ mol/ml
CCCCCC(=O)OCC1(O)OC(C2CC(C)C(C3(C)CCC(C4(C)CCC5(CC(O)C(C)C(C(C)C(OC(=O)CC)C(C)C(=O)O)O5)O4)O3)O2)C(C)CC1C (centres unmarked) [L. C6, laidlomycin hexanoate] | 37.1% | 40.1% | 41.7% | 33.0% | 18% | 11% | – | – | – | – | – | – | – | – | – | – | – | – | – | – | activity at 20 µg/mL ([2]; 20 μg/ml): 14%; activity at 0.31 µg/mL ([2]; .31 μg/ml): 60%
CCCCCCC(=O)OCC1(O)OC(C2CC(C)C(C3(C)CCC(C4(C)CCC5(CC(O)C(C)C(C(C)C(OC(=O)CC)C(C)C(=O)O)O5)O4)O3)O2)C(C)CC1C (centres unmarked) [L. C7, laidlomycin heptanoate] | – | – | – | – | – | – | 46.2% | 46.9% | 48.4% | 48.1% | 47.2% | 41.4% | 45.3% | 1.90 µmol/mL | 1.32 µmol/mL | 1.16 µmol/mL | 1.46 µmol/mL | 1.94 µmol/mL | 38.37 µmol/mL | 14.12 µmol/mL | –
CCCCCCCC(=O)OCC1(O)OC(C2CC(C)C(C3(C)CCC(C4(C)CCC5(CC(O)C(C)C(C(C)C(OC(=O)CC)C(C)C(=O)O)O5)O4)O3)O2)C(C)CC1C (centres unmarked) [L. C8, laidlomycin octanoate] | – | – | – | – | – | – | 46.4% | 47.3% | 48.2% | 47.5% | 49.4% | 42.7% | 43.9% | 1.21 µmol/mL | 1.31 µmol/mL | 1.27 µmol/mL | 1.39 µmol/mL | 2.14 µmol/mL | 41.96 µmol/mL | 9.41 µmol/mL | –
CCCCCCCCCC(=O)OCC1(O)OC(C2CC(C)C(C3(C)CCC(C4(C)CCC5(CC(O)C(C)C(C(C)C(OC(=O)CC)C(C)C(=O)O)O5)O4)O3)O2)C(C)CC1C (centres unmarked) [L. C10, laidlomycin decanoate] | – | – | – | – | – | – | 45.5% | 47.1% | 46.7% | 46.6% | 48.1% | 39.9% | 43.6% | 0.84 µmol/mL | 1.20 µmol/mL | 0.94 µmol/mL | 0.94 µmol/mL | 0.96 µmol/mL | 36.86 µmol/mL | 30.78 µmol/mL | –
CCCCCCCCCCCC(=O)OCC1(O)OC(C2CC(C)C(C3(C)CCC(C4(C)CCC5(CC(O)C(C)C(C(C)C(OC(=O)CC)C(C)C(=O)O)O5)O4)O3)O2)C(C)CC1C (centres unmarked) [L. C12, laidlomycin dodecanoate] | – | – | – | – | – | – | 45.3% | 46.1% | 46.8% | 47.7% | 48.0% | 42.0% | 43.8% | 11.19 µmol/mL | 1.04 µmol/mL | 3.32 µmol/mL | 2.16 µmol/mL | 1.65 µmol/mL | 34.90 µmol/mL | 38.01 µmol/mL | –
